According to patent publication US20100292231A1, “Indazole Compounds for Treating Inflammatory Disorders, Demyelinating Disorders and Cancers” (priority 2007, published 2010):
Like-named read-outs stand apart in the source and are kept apart here.

Legend:
FLT3 D835Y = target: T1, FLT3 D835Y (Homo sapiens, UniProt P36888, D835Y); test: Kinase EC50 (10 pt curve or estimate, ATP Kmapp); type: biochemical; settings: from 10 pt curve or estimate based on 1 μm inhibition assay at ATP Kmapp
T1 construct: purchased Invitrogen (SelectScreen platform)
T1 sequence (P36888 27-993 D835Y): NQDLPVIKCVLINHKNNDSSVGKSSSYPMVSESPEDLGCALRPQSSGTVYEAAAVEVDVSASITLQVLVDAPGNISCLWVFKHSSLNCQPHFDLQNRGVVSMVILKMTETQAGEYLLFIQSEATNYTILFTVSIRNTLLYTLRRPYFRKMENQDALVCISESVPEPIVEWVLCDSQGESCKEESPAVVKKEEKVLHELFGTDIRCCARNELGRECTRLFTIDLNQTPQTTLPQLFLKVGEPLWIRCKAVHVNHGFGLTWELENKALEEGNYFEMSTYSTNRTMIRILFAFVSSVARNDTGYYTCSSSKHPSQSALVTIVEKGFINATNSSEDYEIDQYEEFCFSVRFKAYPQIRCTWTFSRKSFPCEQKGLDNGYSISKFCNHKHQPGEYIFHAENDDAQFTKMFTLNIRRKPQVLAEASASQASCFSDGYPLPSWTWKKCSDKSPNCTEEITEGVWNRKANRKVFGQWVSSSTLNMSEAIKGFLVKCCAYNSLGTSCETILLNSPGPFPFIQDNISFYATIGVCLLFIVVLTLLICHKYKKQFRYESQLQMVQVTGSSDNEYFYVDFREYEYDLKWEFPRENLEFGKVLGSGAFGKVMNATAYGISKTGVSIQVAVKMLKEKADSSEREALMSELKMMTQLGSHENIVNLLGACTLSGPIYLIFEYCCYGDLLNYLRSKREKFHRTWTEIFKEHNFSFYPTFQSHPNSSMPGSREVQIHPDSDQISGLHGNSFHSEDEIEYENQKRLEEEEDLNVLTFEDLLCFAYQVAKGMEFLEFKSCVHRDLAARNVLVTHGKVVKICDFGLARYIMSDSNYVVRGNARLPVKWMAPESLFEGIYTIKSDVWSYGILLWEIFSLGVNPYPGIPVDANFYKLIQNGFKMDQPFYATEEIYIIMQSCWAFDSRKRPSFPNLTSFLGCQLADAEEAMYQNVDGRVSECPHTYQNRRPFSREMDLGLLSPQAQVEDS

CSF-1R = target: T2, CSF-1R (Homo sapiens, UniProt P07333); test: Kinase EC50 (10 pt curve or estimate, ATP Kmapp); type: biochemical; settings: from 10 pt curve or estimate based on 1 μm inhibition assay at ATP Kmapp
T2 construct: purchased Invitrogen (SelectScreen platform)

[1] = test system: MdaMb231 (breast cancer) cell line; test: sulforhodamine B (SRB) cytotoxicity assay; type: cell-based; settings: Homo sapiens
Description: (§1) The cytotoxic activity of compounds listed in Table 5 was determined with a sulforhodamine B (SRB) assay on panel of cell lines, including MdaMb231 (breast cancer), MV4-11 (leukemia), PC-3 (prostate cancer), U266B1 (multiple myeloma), C7 macrophages, and Raw264.7 (murine macrophage-like cells).
(§2) Cells growing in relevant media were seeded in a 96 well plate and left to adhere overnight. Cells were plated at appropriate cell densities: • MV4-11: 20.000 cells/well • Mda-Mb231: 6000 cells/well • C7: 10.000 cells/well • Raw264.7: 2000 cells/well • PC-3: 6000 cells/well • U266B1: 40.000 cells/well.
(§3) Cells were incubated before the compounds were added the next day to a top concentration of 100 μM and serially diluted 1 in 5 across the plate. After a 3 day incubation period (6 days for C7 and Raw264.7) cells were fixed with trichloroacetic acid (TCA) to end concentration of 10% for adherent cells and 16% end concentration for suspension cells for 1 hr at 4° C. before washing. Cells were stained with 0.4% sulforhodamine-B dye (SRB) in 1% acetic acid for 30 minutes and washed in 1% acetic acid. To solubilize the dye 100 μl 10 mM Tris, pH 10.5 was added and the absorbance was read at 564 nm. IC50 values were generated using the SoftMAX Pro™ software. The data is presented below in Tables 6 through 11.

[2] = test system: Raw264.7 (murine macrophage-like cells); test: sulforhodamine B (SRB) cytotoxicity assay; type: cell-based; settings: Mus musculus, Table 5 summary, read-out: IC50 SRB assay Raw 264.7
Description: as §1, §2, §3

MdaMb231 cells [3] = test: BrdU cell proliferation assay; type: cell-based; settings: for concentration at which cell proliferation was inhibited (BrdU): MdaMb231 cells, 24 hour treatment; for BrdU (Inhibition of cell proliferation): Table 5 summary, concentration inhibiting proliferation
Description: Representative compounds of the present invention were evaluated in a BrdU assay to determine their effect on the cell proliferation of MdaMb231 cells.
The effect of the inventive compounds on cell proliferation was analyzed by detecting 5-Bromo-2′-deoxy-uridine (BrdU) incorporation after 24 hour treatment with the test compounds. The cell proliferation ELISA BrdU kit (Roche™ cat. No. 11 647 229 001) was used according to manufacturer's protocol. Cells were plated at 10.000 cells/well. The next day compounds were added in concentration range of 2.5, 5, 10 and 20 μM.
After 24 hours, 12 μl/well BrdU labelling solution was added and cells were incubated for 6 hours at 37° C./5% CO2 before labeling solution was removed. Cells were fixed with 200 μl FixDenat™ solution for 30 minutes. After removal of fixative 100 μl BrdU-peroxidase working solution was added and cells were incubated for 90 minutes. Cells were subsequently washed three times. 100 μl substrate solution was added and after 30 minutes the absorbance was read at 370 nm.

MdaMb231 cells [4] = test: in vitro scratch (cell migration) assay; type: cell-based; settings: for concentration resulting in inhibition of cell motility / migration: Mda231 cells, after 48 hrs; for Migration: Table 5 summary, concentration inhibiting migration
Description: The in vitro scratch assay is used to determine the ability of cancer cells to migrate into and close an open wound; such migration is considered to have a role in metastasis of tumor cells.
Cells were plated in gelatin-coated 6-well plates and grown until a confluent monolayer was formed. When confluent, a straight scratch was made with a p200 pipette tip, cells were washed and compounds were added at concentrations of 1 μM, 2.5 μM, 5 μM, 10 μM and 20 μM. Images were taken at specific reference points at 0, 24 and 48 hours with Zeiss Axiovert 40 CFL microscope and Axiocam MRc5 camera and the ability of the cells to move in and close the wound was measured.
The data is presented in FIG. 1, which is a bar plot of percent cell migration into the “wound” in each sample (measured with respect to the control) and FIG. 2, which is a plot of percent wound confluence as a function of time (measured with respect to the control).

[5] = MDA-MB-231, 72 h, 100 μM highest concentration, diluted 1:5 (two series), 3 day incubation, read-out: IC50 Measured Against MdaMb231 Cell Line
[6] = MDA-MB-231, Table 5 summary, read-out: IC50 SRB assay Mda MB-231

T2 sequence (P07333 20-972): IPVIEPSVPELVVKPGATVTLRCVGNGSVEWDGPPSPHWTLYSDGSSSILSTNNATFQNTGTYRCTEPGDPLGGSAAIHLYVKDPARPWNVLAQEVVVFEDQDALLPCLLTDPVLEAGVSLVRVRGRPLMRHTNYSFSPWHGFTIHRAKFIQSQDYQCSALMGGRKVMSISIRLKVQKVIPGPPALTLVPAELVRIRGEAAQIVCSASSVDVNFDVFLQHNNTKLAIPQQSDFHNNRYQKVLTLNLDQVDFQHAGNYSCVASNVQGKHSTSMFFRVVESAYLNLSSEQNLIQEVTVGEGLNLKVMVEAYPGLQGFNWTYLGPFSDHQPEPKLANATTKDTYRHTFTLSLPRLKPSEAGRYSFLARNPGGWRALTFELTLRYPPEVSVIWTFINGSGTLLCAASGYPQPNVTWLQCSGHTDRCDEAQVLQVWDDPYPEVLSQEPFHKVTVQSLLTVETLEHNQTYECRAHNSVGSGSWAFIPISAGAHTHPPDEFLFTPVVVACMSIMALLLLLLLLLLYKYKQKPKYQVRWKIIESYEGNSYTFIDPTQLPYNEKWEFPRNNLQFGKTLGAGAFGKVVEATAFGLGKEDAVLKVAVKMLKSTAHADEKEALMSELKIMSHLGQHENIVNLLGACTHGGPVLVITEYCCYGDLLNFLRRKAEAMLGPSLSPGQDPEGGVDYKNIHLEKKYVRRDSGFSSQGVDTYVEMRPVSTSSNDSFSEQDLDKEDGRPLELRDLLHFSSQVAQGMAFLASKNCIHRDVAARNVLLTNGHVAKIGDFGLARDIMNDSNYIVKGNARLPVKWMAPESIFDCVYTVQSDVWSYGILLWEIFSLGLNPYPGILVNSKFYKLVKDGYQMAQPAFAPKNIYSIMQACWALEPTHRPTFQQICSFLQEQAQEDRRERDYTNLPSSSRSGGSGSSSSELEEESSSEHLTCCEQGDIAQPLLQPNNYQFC

SMILES	EC50 (FLT3 D835Y) [nM]	EC50 (CSF-1R) [nM]	IC50 [1, 5] [µM]	IC50 [1, 6] [µM]	IC50 [2] [nM]	concentration at which cell proliferation was inhibited (BrdU) (MdaMb231 cells [3]) [µM]	BrdU (Inhibition of cell proliferation) (MdaMb231 cells [3]) [μm]	concentration resulting in inhibition of cell motility / migration (MdaMb231 cells [4]) [µM]	Migration (MdaMb231 cells [4]) [μm]
CN(C)CCNc1ccc2ncn3c4ccc5[nH]ncc5c4c(=O)c1c23 [(XII)]	3	360	7.4	7.4	< 0.1	2.5	2.5	5	>5
CC(CCN1CCOCC1)Nc1ccc2ncn3c4ccc5[nH]ncc5c4c(=O)c1c23 (stereo not shown) [(XVI)]	8	245	5.1	5.1	25.7	20	5	5	1
CCN(CC)CCCNc1ccc2ncn3c4ccc5[nH]ncc5c4c(=O)c1c23 [Compound (XV)]	4	490	4	4	< 0.1	20	–	1	1
CN1CCN(CCCNc2ccc3ncn4c5ccc6[nH]ncc6c5c(=O)c2c34)CC1 [(XVII)]	5	950	45.3	45.3	2.6	–	>20	5	5
O=c1c2c(NCCCN3CCOCC3)ccc3ncn(c4ccc5[nH]ncc5c14)c32 [(X)]	11	280	–	–	2.7	20	20	5	5
CCN(CC)CCNc1ccc2ncn3c4ccc(O)cc4c(=O)c1c23 [Symadex, 5-(2-(diethylamino)ethylamino)-8-hydroxy-6H-imidazo[4,5,1-de]acridin-6-one, reference compound]	24	430	–	6.8	–	–	–	10	10
CN(C)CCCNc1ccc2ncn3c4ccc5[nH]ncc5c4c(=O)c1c23 [Compound (IV)]	12	200	5.4	5.4	< 0.1	2.5	2.5	5	1
